In brackets after ≈: the same amount, converted by molar mass. Like-named read-outs stand apart in the source and are kept apart here.
Assays:
Staphylococcus aureus = experiment: Susceptibility testing (MIC) Assay 1, broth microdilution; assay type: cell-based
Streptococcus pneumoniae = experiment: as above; assay type: cell-based
Streptococcus pyogenes = experiment: as above; assay type: cell-based; settings: Streptococcus pyrgenes, in vivo strain, read-out: Spy MIC
Escherichia coli = experiment: Susceptibility testing (MIC) Assay 2, broth microdilution; assay type: cell-based; settings: K12, read-out: Eco MIC
Haemophilus influenzae = experiment: as above; assay type: cell-based; settings: ATCC 51907, in vivo strain, read-out: Hin MIC
Klebsiella pneumoniae = experiment: as above; assay type: cell-based; settings: clinical isolate, mucoid, read-out: Kpn MIC
Pseudomonas aeruginosa = experiment: as above; assay type: cell-based; settings: for MIC: PAO1, read-out: Pae MIC; for Pae MIC: PAO1
[1] = biological target: Escherichia coli DNA gyrase A/B tetramer (Escherichia coli (strain K12), UniProt P0AES4+P0AES6); experiment: DNA gyrase supercoiling activity fluorescence polarisation assay; assay type: biochemical; settings: 0.3 mM ATP
How it was run: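 IC50 derived by nonlinear regression from BODIPY-FL fluorescence anisotropy, read 60 min after quenching with labelled triplex-forming probe (pH 3.5). Reaction: 5 nM gyrase tetramer, 130 micrograms/mL relaxed plasmid, 0.3 mM ATP, 4 mM MgCl2, pH 7.5, typically 30 min at ambient temperature, 5-10 compound concentrations.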

[2] = Staphylococcus aureus, Staphylococcus aureus in vivo strain, MSQS, read-out: Sau(d) MIC
[3] = Staphylococcus aureus, in vivo strain, MRQR, read-out: Sau(e) MIC
[4] = Staphylococcus aureus, serum, read-out: Sau(f) MIC
[5] = in vivo strain (footnote b), read-out: Spn(b) MIC
[6] = in vivo strain (footnote c), read-out: Spn(c) MIC
[7] = ATCC51907, Haemophilus influenzae
[8] = Eco Gyr FP Mean IC50, E. coli DNA gyrase supercoiling
[9] = Staphylococcus aureus in vivo strain, MSQS, read-out: Sau(d) MIC
[10] = E. coli DNA gyrase supercoiling, read-out: Eco Gyr FP Mean IC50

Compound	MIC (Staphylococcus aureus; [2])	MIC (Staphylococcus aureus; [3])	MIC (Staphylococcus aureus; [4])	MIC (Streptococcus pneumoniae; [5])	MIC (Streptococcus pneumoniae; [6])	MIC (Streptococcus pyogenes; Streptococcus pyogenes)	MIC (Escherichia coli)	MIC (Haemophilus influenzae; [7])	MIC (Klebsiella pneumoniae)	MIC (Pseudomonas aeruginosa)	IC50 [1, 8]	MIC (Staphylococcus aureus; [9])	MIC (Streptococcus pyogenes)	MIC (Haemophilus influenzae)	Pae MIC (Pseudomonas aeruginosa)	IC50 [1, 10]
C[C@@H]1CN2c3c(cc4c(N5C(=O)OC[C@@H]5CC#N)noc4c3F)CC3(C(=O)NC(=O)NC3=O)[C@H]2[C@H](C)O1 [Example 71, {(4S)-3-[(2R,4S,4aS)-11-Fluoro-2,4-dimethyl-2′,4′,6′-trioxo-1,1′,2,3′,4,4′,4a,6′-octahydro-2′H,6H-spiro[1,4-oxazino[4,3-a][1,2]oxazolo[4,5-g]quinoline-5,5′-pyrimidin]-8-yl]-2-oxo-1,3-oxazolidin-4-yl}acetonitrile]	3.1 µM (≈ 1.59 µg/mL)	6.2 µM (≈ 3.18 µg/mL)	3.1 µM (≈ 1.59 µg/mL)	1.6 µM (≈ 0.82 µg/mL)	1.6 µM (≈ 0.82 µg/mL)	1.6 µM (≈ 0.82 µg/mL)	50 µM (≈ 25.6 µg/mL)	1.6 µM (≈ 0.82 µg/mL)	> 200 µM	> 200 µM	0.16 µM					
C[C@@H]1CN2c3c(cc4c(N5C(=O)OC[C@@H]5Cc5ccccc5)noc4c3F)CC3(C(=O)NC(=O)NC3=O)[C@H]2[C@H](C)O1 [Example 11, (2R,4S,4aS)-8-[(4S)-4-Benzyl-2-oxo-1,3-oxazolidin-3-yl]-11-fluoro-2,4-dimethyl-1,2,4,4a-tetrahydro-2′H,6H-spiro[1,4-oxazino[4,3-a][1,2]oxazolo[4,5-g]quinoline-5,5′-pyrimidine]-2′,4′,6′(1′H,3′H)-trione]	1.6 µM (≈ 0.902 µg/mL)	1.6 µM (≈ 0.902 µg/mL)	25 µM (≈ 14.1 µg/mL)	3.1 µM (≈ 1.75 µg/mL)	3.1 µM (≈ 1.75 µg/mL)	3.1 µM (≈ 1.75 µg/mL)	50 µM (≈ 28.2 µg/mL)	3.1 µM (≈ 1.75 µg/mL)	> 200 µM	> 200 µM	1.2 µM					
COC[C@@H]1CN(c2noc3c(Cl)c4c(cc23)CC2(C(=O)NC(=O)NC2=O)[C@H]2[C@H](C)O[C@H](C)CN42)C(=O)O1 [Example 20]	0.28 µM (≈ 0.149 µg/mL)	1.1 µM (≈ 0.587 µg/mL)	0.39 µM (≈ 0.208 µg/mL)	0.28 µM (≈ 0.149 µg/mL)	0.28 µM (≈ 0.149 µg/mL)	0.28 µM (≈ 0.149 µg/mL)	25 µM (≈ 13.3 µg/mL)	0.39 µM (≈ 0.208 µg/mL)	> 200 µM	> 200 µM	0.42 µM					
CSC[C@H]1COC(=O)N1c1noc2c(F)c3c(cc12)CC1(C(=O)NC(=O)NC1=O)[C@H]1[C@H](C)O[C@H](C)CN31 [Example 45]	< 0.2 µM	0.39 µM (≈ 0.208 µg/mL)	0.78 µM (≈ 0.416 µg/mL)	0.39 µM (≈ 0.208 µg/mL)	0.55 µM (≈ 0.293 µg/mL)	0.39 µM (≈ 0.208 µg/mL)	25 µM (≈ 13.3 µg/mL)	0.39 µM (≈ 0.208 µg/mL)	200 µM (≈ 107 µg/mL)	> 200 µM	0.26 µM					
C[C@@H]1CN2c3c(cc4c(N5C(=O)OC[C@@H]5CCCF)noc4c3F)CC3(C(=O)NC(=O)NC3=O)[C@H]2[C@H](C)O1 [Example 30, (2R,4S,4aS)-11-Fluoro-8-((S)-4-(3-fluoropropyl)-2-oxooxazolidin-3-yl)-2,4-dimethyl-2,4,4a,6-tetrahydro-1H,1′H-spiro[isoxazolo[4,5-g][1,4]oxazino[4,3-a]quinoline-5,5′-pyrimidine]-2′,4′,6′(3′H)-trione]	< 0.2 µM	0.78 µM (≈ 0.416 µg/mL)	0.78 µM (≈ 0.416 µg/mL)	0.39 µM (≈ 0.208 µg/mL)	0.39 µM (≈ 0.208 µg/mL)	0.39 µM (≈ 0.208 µg/mL)	25 µM (≈ 13.3 µg/mL)	0.39 µM (≈ 0.208 µg/mL)	200 µM (≈ 107 µg/mL)	> 200 µM	0.5 µM					
C[C@@H]1CN2c3c(cc4c(N5C(=O)OC[C@H]5C5CCOCC5)noc4c3F)CC3(C(=O)NC(=O)NC3=O)[C@H]2[C@H](C)O1 [Example 27]		3.1 µM (≈ 1.73 µg/mL)	1.6 µM (≈ 0.892 µg/mL)	0.78 µM (≈ 0.435 µg/mL)	0.78 µM (≈ 0.435 µg/mL)		100 µM (≈ 55.8 µg/mL)		>200 µM			0.78 µM (≈ 0.435 µg/mL)	0.78 µM (≈ 0.435 µg/mL)	0.39 µM (≈ 0.217 µg/mL)	>200 µM	0.53 µM
COC[C@@H]1COC(=O)N1c1noc2c(F)c3c(cc12)CC1(C(=O)NC(=O)NC1=O)[C@H]1[C@H](C)O[C@H](C)CN31 [Example 18, (2R,4S,4aS)-11-fluoro-8-[(4R)-4-(methoxymethyl)-2-oxo-1,3-oxazolidin-3-yl]-2,4-dimethyl-1,2,4,4a-tetrahydro-2′H,6H-spiro[1,4-oxazino[4,3-a][1,2]oxazolo[4,5-g]quinoline-5,5′-pyrimidine]-2′,4′,6′(1′H,3′H)-trione]	3.1 µM (≈ 1.6 µg/mL)	6.2 µM (≈ 3.21 µg/mL)	12 µM (≈ 6.21 µg/mL)	3.1 µM (≈ 1.6 µg/mL)	6.2 µM (≈ 3.21 µg/mL)	12 µM (≈ 6.21 µg/mL)	> 200 µM	3.1 µM (≈ 1.6 µg/mL)	> 200 µM	> 200 µM	0.81 µM					
CC[C@@H]1CN(c2noc3c(F)c4c(cc23)CC2(C(=O)NC(=O)NC2=O)[C@H]2[C@H](C)O[C@H](C)CN42)C(=O)O1 [Example 14, (2R,4S,4aS)-8-[(5R)-5-Ethyl-2-oxo-1,3-oxazolidin-3-yl]-11-fluoro-2,4-dimethyl-1,2,4,4a-tetrahydro-2′H,6H-spiro[1,4-oxazino[4,3-a][1,2]oxazolo[4,5-g]quinoline-5,5′-pyrimidine]-2′,4′,6′(1′H,3′H)-trione]	0.39 µM (≈ 0.196 µg/mL)	0.78 µM (≈ 0.391 µg/mL)	1.6 µM (≈ 0.802 µg/mL)	0.78 µM (≈ 0.391 µg/mL)	0.78 µM (≈ 0.391 µg/mL)	0.78 µM (≈ 0.391 µg/mL)	25 µM (≈ 12.5 µg/mL)	0.78 µM (≈ 0.391 µg/mL)	200 µM (≈ 100 µg/mL)	> 200 µM	0.57 µM					
CO[C@@H](C)[C@@H]1COC(=O)N1c1noc2c(F)c3c(cc12)CC1(C(=O)NC(=O)NC1=O)[C@H]1[C@H](C)O[C@H](C)CN31 [Example 60]	0.78 µM (≈ 0.415 µg/mL)	1.6 µM (≈ 0.85 µg/mL)	1.6 µM (≈ 0.85 µg/mL)	1.6 µM (≈ 0.85 µg/mL)	1.6 µM (≈ 0.85 µg/mL)	1.6 µM (≈ 0.85 µg/mL)	100 µM (≈ 53.1 µg/mL)	1.6 µM (≈ 0.85 µg/mL)	> 200 µM	> 200 µM	0.95 µM					
C[C@@H]1CN2c3c(cc4c(N5C(=O)OC[C@H]5C)noc4c3F)CC3(C(=O)NC(=O)NC3=O)[C@H]2[C@H](C)O1 [Example 2, (2R,4S,4aS)-11-Fluoro-2,4-dimethyl-8-[(4R)-4-methyl-2-oxo-1,3-oxazolidin-3-yl]-1,2,4,4a-tetrahydro-2′H,6H-spiro[1,4-oxazino[4,3-a][1,2]oxazolo[4,5-g]quinoline-5,5′-pyrimidine]-2′,4′,6′(1′H,3′H)-trione]	3.1 µM (≈ 1.51 µg/mL)	12 µM (≈ 5.85 µg/mL)	6.2 µM (≈ 3.02 µg/mL)	12 µM (≈ 5.85 µg/mL)	3.1 µM (≈ 1.51 µg/mL)	3.1 µM (≈ 1.51 µg/mL)	100 µM (≈ 48.7 µg/mL)	1.6 µM (≈ 0.78 µg/mL)	> 200 µM	> 200 µM	2.7 µM					
COC[C@H]1COC(=O)N1c1noc2c(F)c3c(cc12)CC1(C(=O)NC(=O)NC1=O)[C@H]1[C@H](C)O[C@H](C)CN31 (single isomer, unassigned) [Example 17]	0.28 µM (≈ 0.145 µg/mL)	0.78 µM (≈ 0.404 µg/mL)	0.39 µM (≈ 0.202 µg/mL)	0.55 µM (≈ 0.285 µg/mL)	0.55 µM (≈ 0.285 µg/mL)	0.55 µM (≈ 0.285 µg/mL)	50 µM (≈ 25.9 µg/mL)	0.39 µM (≈ 0.202 µg/mL)	> 200 µM	> 200 µM	0.14 µM					
C[C@@H]1CN2c3c(cc4c(N5C(=O)OC[C@H]5c5ccccc5)noc4c3F)CC3(C(=O)NC(=O)NC3=O)[C@H]2[C@H](C)O1 [Example 8, (2R,4S,4aS)-11-Fluoro-2,4-dimethyl-8-[(4R)-2-oxo-4-phenyl-1,3-oxazolidin-3-yl]-1,2,4,4a-tetrahydro-2′H,6H-spiro[1,4-oxazino[4,3-a][1,2]oxazolo[4,5-g]quinoline-5,5′-pyrimidine]-2′,4′,6′(1′H,3′H)-trione]	6.2 µM (≈ 3.41 µg/mL)	12 µM (≈ 6.59 µg/mL)	200 µM (≈ 110 µg/mL)	50 µM (≈ 27.5 µg/mL)	50 µM (≈ 27.5 µg/mL)	12 µM (≈ 6.59 µg/mL)	> 200 µM	12 µM (≈ 6.59 µg/mL)	> 200 µM	> 200 µM	7.3 µM					
C[C@@H]1CN2c3c(cc4c(N5C(=O)OC[C@@H]5[C@@H](C)O)noc4c3F)CC3(C(=O)NC(=O)NC3=O)[C@H]2[C@H](C)O1 [Example 77]	3.1 µM (≈ 1.6 µg/mL)	12 µM (≈ 6.21 µg/mL)	6.2 µM (≈ 3.21 µg/mL)	0.78 µM (≈ 0.404 µg/mL)	0.78 µM (≈ 0.404 µg/mL)	0.78 µM (≈ 0.404 µg/mL)	200 µM (≈ 103 µg/mL)	0.78 µM (≈ 0.404 µg/mL)	> 200 µM	> 200 µM	0.53 µM					
C[C@@H]1CN2c3c(cc4c(N5C(=O)O[C@H](C)[C@@H]5C)noc4c3F)CC3(C(=O)NC(=O)NC3=O)[C@H]2[C@H](C)O1 [Example 23]	0.39 µM (≈ 0.196 µg/mL)	0.78 µM (≈ 0.391 µg/mL)	0.78 µM (≈ 0.391 µg/mL)	0.78 µM (≈ 0.391 µg/mL)	0.78 µM (≈ 0.391 µg/mL)	0.39 µM (≈ 0.196 µg/mL)	6.2 µM (≈ 3.11 µg/mL)	0.39 µM (≈ 0.196 µg/mL)	100 µM (≈ 50.1 µg/mL)	> 200 µM	0.52 µM					
C[C@@H]1CN2c3c(cc4c(N5C(=O)OC[C@@H]5CN=[N+]=[N-])noc4c3F)CC3(C(=O)NC(=O)NC3=O)[C@H]2[C@H](C)O1 [Example 48]		12 µM (≈ 6.34 µg/mL)	50 µM (≈ 26.4 µg/mL)	12 µM (≈ 6.34 µg/mL)	12 µM (≈ 6.34 µg/mL)		200 µM (≈ 106 µg/mL)		>200 µM			6.2 µM (≈ 3.28 µg/mL)	6.2 µM (≈ 3.28 µg/mL)	6.2 µM (≈ 3.28 µg/mL)	>200 µM	> 2.1 µM

Source: patent US8889671B2, “Compounds and methods for treating bacterial infections” (AstraZeneca AB, priority 2013, dated 2014)
